# Results: patent publication US9266869B2, “Substituted dialkyl(oxido)-lambda4-sulfanylidene nicotinamide derivatives as kinase inhibitors” (Allergan, Inc., priority 2013, dated 2016)
# Legend:
# [1] = target: VEGFR2 (KDR) (Homo sapiens (Human), UniProt P35968); test: VEGFR2 Kinase Assay; type: biochemical; settings: purified cytoplasmic domain KDR protein, 2.7 μM ATP; read-out: VEGFR2 Enzyme Assay (IC50 nM)
# Experimental: VEGFR2 Kinase Assay Biochemical KDR kinase assays were performed in 96 well microtiter plates that were coated overnight with 75 μg/well of poly-Glu-[…]:1) in 10 mM Phosphate Buffered Saline (PBS), pH 7.4. […] Reactions were carried out in 100 μL reaction volumes containing 2.7 μM ATP in kinase buffer (50 mM Hepes buffer pH 7.4, 20 mM MgCl2, 0.1 mM MnCl2 and 0.2 mM Na3VO4). […] Reactions were initiated by the addition 20 ul per well of kinase buffer containing 200-300 ng purified cytoplasmic domain KDR protein (BPS Bioscience, San Diego, Calif.). Following a 15 minute incubation at 30° C., the reactions were washed 2 mls per well PBS-T. 100 μl of a monoclonal anti-phosphotyrosine antibody-peroxidase conjugate diluted 1:10,000 in PBS-T was added to the wells for 30 minutes. Following a 2 mls per well wash with PBS-Tween-20, 100 μl of 0-Phenylenediamine Dihydrochloride in phosphate-citrate buffer, containing urea hydrogen peroxide, was added to the wells for 7-10 minutes as a colorimetric substrate for the peroxidase. […] IC50 values for compound inhibition were calculated directly from graphs of optical density (arbitrary units) versus compound concentration following subtraction of blank values.
# [2] = target: T1, PDGFRβ (Homo sapiens (Human), UniProt P09619); test: PDGFRβ Kinase Assay; type: biochemical; settings: purified cytoplasmic domain PDGFR-b protein, 36 μM ATP; read-out: PDGFRβ Enzyme Assay (IC50 nM)
# Experimental: Biochemical PDGFRβ kinase assays were performed in 96 well microtiter plates that were coated overnight with 75 μg of poly-Glu-Tyr (4:1) in 10 mM Phosphate Buffered Saline (PBS), pH 7.4.
# PBS-T prior to starting the reaction. Reactions were carried out in 100 μL reaction volumes containing 36 μM ATP in kinase buffer (50 mM Hepes buffer pH 7.4, 20 mM MgCl2, 0.1 mM MnCl2 and 0.2 mM Na3VO4). […] Reactions were initiated by the addition 20 ul per well of kinase buffer containing 200-300 ng purified cytoplasmic domain PDGFR-b protein (Millipore). Following a 60 minute incubation at 30° C., the reactions were washed 2 mls per well PBS-T. 100 μl of a monoclonal anti-phosphotyrosine antibody-peroxidase conjugate diluted 1:10,000 in PBS-T was added to the wells for 30 minutes. Following a 2 mls per well wash with PBS-Tween-20, 100 μl of O-Phenylenediamine Dihydrochloride in phosphate-citrate buffer, containing urea hydrogen peroxide, was added to the wells for 7-10 minutes as a colorimetric substrate for the peroxidase. […] IC50 values for compound inhibition were calculated directly from graphs of optical density (arbitrary units) versus compound concentration following subtraction of blank values.
# Target sequence in this assay (P09619 554-1106): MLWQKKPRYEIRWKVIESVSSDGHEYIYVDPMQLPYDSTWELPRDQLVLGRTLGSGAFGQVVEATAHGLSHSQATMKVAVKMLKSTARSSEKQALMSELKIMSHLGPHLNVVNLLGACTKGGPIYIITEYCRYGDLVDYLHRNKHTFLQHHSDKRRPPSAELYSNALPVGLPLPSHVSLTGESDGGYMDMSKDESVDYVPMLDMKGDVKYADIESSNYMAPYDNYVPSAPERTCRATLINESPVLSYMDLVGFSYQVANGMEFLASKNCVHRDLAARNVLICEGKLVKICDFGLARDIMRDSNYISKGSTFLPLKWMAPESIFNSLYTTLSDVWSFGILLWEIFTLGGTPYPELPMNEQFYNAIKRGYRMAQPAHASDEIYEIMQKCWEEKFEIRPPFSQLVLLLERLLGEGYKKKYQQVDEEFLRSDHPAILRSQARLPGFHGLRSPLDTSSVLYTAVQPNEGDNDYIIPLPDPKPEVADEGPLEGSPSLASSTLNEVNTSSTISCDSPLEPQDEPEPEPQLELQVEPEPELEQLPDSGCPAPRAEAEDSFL
# [3] = target: VEGFR2 (Homo sapiens (Human), UniProt P35968); test: VEGFR2 Cellular Assay (VEGF induced intracellular calcium, FLIPR, HUVEC); type: cell-based; settings: VEGF165 stimulation (10 ng/mL)
# VEGFR2, sequence (P35968 20-1356): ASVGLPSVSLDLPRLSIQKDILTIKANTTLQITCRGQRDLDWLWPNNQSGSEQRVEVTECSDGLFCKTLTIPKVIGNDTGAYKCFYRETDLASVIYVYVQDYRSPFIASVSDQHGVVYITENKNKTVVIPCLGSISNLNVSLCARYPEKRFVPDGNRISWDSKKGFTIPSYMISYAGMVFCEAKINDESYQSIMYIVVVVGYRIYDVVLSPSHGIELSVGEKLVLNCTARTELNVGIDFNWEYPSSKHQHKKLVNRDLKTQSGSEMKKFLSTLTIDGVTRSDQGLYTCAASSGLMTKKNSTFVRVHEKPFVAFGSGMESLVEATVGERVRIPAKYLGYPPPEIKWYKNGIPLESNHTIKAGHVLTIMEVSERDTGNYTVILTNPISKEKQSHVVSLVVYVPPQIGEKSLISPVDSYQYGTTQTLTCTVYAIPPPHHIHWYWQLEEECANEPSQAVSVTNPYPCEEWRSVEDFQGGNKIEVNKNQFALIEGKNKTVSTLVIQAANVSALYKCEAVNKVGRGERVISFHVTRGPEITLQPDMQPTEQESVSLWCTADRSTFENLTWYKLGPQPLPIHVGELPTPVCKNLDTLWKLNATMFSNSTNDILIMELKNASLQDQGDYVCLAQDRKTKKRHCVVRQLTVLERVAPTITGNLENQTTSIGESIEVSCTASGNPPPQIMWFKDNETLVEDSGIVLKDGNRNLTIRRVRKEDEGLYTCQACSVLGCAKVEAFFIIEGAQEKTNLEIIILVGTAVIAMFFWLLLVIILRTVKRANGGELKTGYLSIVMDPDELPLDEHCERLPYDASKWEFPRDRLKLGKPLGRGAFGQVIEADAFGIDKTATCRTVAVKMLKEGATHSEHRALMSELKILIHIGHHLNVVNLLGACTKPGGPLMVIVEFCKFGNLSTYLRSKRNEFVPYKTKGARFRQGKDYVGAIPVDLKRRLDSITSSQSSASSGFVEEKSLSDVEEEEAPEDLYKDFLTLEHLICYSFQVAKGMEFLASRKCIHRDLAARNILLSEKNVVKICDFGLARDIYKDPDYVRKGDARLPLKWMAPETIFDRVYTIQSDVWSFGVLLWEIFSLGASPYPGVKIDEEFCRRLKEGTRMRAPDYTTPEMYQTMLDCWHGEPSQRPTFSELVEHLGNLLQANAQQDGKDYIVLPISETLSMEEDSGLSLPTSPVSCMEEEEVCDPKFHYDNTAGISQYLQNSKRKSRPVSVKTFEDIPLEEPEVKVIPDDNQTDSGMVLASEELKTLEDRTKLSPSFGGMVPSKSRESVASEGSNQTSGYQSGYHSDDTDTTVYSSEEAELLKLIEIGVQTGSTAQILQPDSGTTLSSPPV
# Experimental: (§1) VEGFR2 Cellular Assay Automated FLIPR (Fluorometric Imaging Plate Reader) technology was used to screen for inhibitors of VEGF induced increases in intracellular calcium levels in fluorescent dye loaded endothelial cells. HUVEC (human umbilical vein endothelial cells) (Clonetics) were seeded in 384-well fibronectin coated black-walled plates overnight @ 37° C./5% CO2. Cells were loaded with calcium indicator Fluo-4 for 45 minutes at 37° C. Cells were washed 2 times (Elx405, Biotek Instruments) to remove extracellular dye. For screening, cells were pre-incubated with test agents for 30 minutes, at a single concentration (10 uM) or at concentrations ranging from 0.0001 to 10.0 uM followed by VEGF165 stimulation (10 ng/mL). Changes in fluorescence at 516 nm were measured simultaneously in all 384 wells using a cooled CCD camera. Data were generated by determining max-min fluorescence levels for unstimulated, stimulated, and drug treated samples. IC50 values for test compounds were calculated from % inhibition of VEGF stimulated responses in the absence of inhibitor.
# [4] = target: T1, PDGFRβ; test: PDGFRβ Cellular Assay (PDGF-induced intracellular calcium, FLIPR, NHDF-Ad); type: cell-based; settings: PDGF-BB stimulation (30 ng/mL)
# Experimental: as §1, with “Automated” for “VEGFR2 Cellular Assay Automated”, “of PDGF-induced” for “of VEGF induced”, “[…]. NHDF-Ad (Normal Human Dermal Fibroblasts, Adult; Lonza)” for “cells. HUVEC (human umbilical vein endothelial cells) (Clonetics)”, “by PDGF-BB” for “by VEGF165”, “stimulation (30” for “stimulation (10”, “of PDGF-BB” for “of VEGF”
# Target sequence in this assay (P09619 33-1106): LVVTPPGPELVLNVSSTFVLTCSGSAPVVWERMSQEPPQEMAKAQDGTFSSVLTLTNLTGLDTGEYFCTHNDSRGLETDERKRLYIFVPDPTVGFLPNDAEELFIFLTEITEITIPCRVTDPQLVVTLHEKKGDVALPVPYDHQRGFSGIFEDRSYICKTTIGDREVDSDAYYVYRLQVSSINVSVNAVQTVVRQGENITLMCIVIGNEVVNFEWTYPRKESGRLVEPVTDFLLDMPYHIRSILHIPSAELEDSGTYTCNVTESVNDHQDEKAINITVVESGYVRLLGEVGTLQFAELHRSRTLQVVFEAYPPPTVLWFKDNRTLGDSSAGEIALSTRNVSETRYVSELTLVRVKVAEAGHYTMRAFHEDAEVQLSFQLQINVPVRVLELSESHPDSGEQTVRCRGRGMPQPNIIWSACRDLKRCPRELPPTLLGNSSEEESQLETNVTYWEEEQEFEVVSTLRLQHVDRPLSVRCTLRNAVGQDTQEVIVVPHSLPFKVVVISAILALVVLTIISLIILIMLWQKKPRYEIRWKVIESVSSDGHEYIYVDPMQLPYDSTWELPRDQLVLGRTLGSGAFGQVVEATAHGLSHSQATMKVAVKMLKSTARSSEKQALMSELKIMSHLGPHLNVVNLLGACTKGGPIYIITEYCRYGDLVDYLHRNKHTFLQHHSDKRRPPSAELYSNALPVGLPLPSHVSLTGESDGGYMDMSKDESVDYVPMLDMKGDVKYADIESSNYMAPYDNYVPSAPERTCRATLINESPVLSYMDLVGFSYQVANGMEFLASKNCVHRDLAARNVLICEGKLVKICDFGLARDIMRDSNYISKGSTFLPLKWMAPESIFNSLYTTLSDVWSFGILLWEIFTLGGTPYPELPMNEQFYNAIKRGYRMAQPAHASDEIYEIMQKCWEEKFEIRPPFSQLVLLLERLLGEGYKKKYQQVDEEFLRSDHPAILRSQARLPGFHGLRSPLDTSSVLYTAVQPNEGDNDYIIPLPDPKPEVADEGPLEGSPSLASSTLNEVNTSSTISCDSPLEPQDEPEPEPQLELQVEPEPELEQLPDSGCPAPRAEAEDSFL
# VEGFR2 (KDR), sequence (P35968 786-1356): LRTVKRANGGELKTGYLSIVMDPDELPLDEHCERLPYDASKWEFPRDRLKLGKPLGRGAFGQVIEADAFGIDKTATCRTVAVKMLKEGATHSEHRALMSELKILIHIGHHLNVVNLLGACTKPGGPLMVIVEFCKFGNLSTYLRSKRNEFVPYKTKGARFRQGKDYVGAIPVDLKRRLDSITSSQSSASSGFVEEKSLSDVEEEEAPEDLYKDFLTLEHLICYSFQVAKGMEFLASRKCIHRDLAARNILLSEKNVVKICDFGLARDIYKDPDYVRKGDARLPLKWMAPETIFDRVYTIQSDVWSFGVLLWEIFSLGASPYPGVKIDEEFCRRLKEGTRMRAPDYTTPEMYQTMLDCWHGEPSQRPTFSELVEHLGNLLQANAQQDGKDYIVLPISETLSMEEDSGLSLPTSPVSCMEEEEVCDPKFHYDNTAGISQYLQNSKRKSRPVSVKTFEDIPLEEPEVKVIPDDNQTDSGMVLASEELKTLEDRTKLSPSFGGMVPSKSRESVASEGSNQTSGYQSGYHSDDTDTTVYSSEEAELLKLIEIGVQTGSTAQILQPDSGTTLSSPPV
Molecule,IC50 [1],IC50 [2],IC50 [3],IC50 [4]
6-Amino-N-[(3-hydroxypropyl)(methyl)oxido-λ^4-sulfanylidene]-5-({3-[(3-methyl-2-furoyl)amino]phenyl}ethynyl)nicotinamide [Example 42],5 nM,13 nM,,
"CS(C)(=O)=NC(=O)c1cnc(N)c(C#Cc2cccc(NC(=O)c3ccc(Cl)cc3)c2)c1 [Example 5, 6-Amino-5-({3-[(4-chlorobenzoyl)amino]phenyl}ethynyl)-N-[dimethyl(oxido)-λ^4-sulfanylidene]nicotinamide]",2 nM,22 nM,9 nM,
"Cn1ccnc1C(=O)Nc1cccc(C#Cc2cc(C(=O)N=S(C)(C)=O)cnc2N)c1 [Example 7, 6-Amino-N-[dimethyl(oxido)-λ^4-sulfanylidene]-5-[(3-{[(1-methyl-1H-imidazol-2-yl)carbonyl]amino}phenyl)ethynyl]nicotinamide]",6 nM,,51 nM,
"CS(C)(=O)=NC(=O)c1cncc(C#Cc2cccc(NC(=O)Nc3ccccc3F)c2)c1 [Example 9, N-[Dimethyl(oxido)-λ^4-sulfanylidene]-5-{[3-({[(2-fluorophenyl)amino]carbonyl}amino)phenyl]ethynyl}nicotinamide]",8 nM,,48 nM,
"Cc1cccc(NC(=O)Nc2cccc(C#Cc3cncc(C(=O)N=S(C)(C)=O)c3)c2)c1 [Example 10, N-[Dimethyl(oxido)-λ^4-sulfanylidene]-5-{[3-({[(3-methylphenyl)amino]carbonyl}amino)phenyl]ethynyl}nicotinamide]",8 nM,19 nM,11 nM,
"Cc1ccc(NC(=O)Nc2cccc(C#Cc3cncc(C(=O)N=S(C)(C)=O)c3)c2)cc1 [Example 11, N-[Dimethyl(oxido)-λ^4-sulfanylidene]-5-{[3-({[(4-methylphenyl)amino]carbonyl}amino)phenyl]ethynyl}nicotinamide]",6 nM,19 nM,15 nM,
"Cc1ccoc1C(=O)Nc1cccc(C#Cc2cncc(C(=O)N=S(=O)(CCCO)CCCO)c2)c1 [Example 14, N-[Bis(3-hydroxypropyl)(oxido)-λ^4-sulfanylidene]-5-({3-[(3-methyl-2-furoyl)amino]phenyl}ethynyl)nicotinamide]",5 nM,26 nM,,
"Cc1ccoc1C(=O)Nc1cccc(C#Cc2cc(C(=O)N=S(=O)(CCCO)CCCO)cnc2N)c1 [Example 15, 6-amino-N-[bis(3-hydroxypropyl)(oxido)-λ^4-sulfanylidene]-5-({3-[(3-methyl-2-furoyl)amino]phenyl}ethynyl)nicotinamide]",3 nM,16 nM,,
"O=C(N=S(=O)(CCCO)CCCO)c1cncc(C#Cc2cccc(NC(=O)c3ccc(Cl)c(C(F)(F)F)c3)c2)c1 [Example 16, N-[Bis(3-hydroxypropyl)(oxido)-λ^4-sulfanylidene]-5-[(3-{[4-chloro-3-(trifluoromethyl)benzoyl]amino}phenyl)ethynyl]nicotinamide]",3 nM,,,
"Cc1cccc(C(=O)Nc2cccc(C#Cc3cncc(C(=O)N=S(=O)(CCCO)CCCO)c3)c2)c1 [Example 17, N-[Bis(3-hydroxypropyl)(oxido)-λ^4-sulfanylidene]-5-({3-[(3-methylbenzoyl)amino]phenyl}ethynyl)nicotinamide]",3 nM,6 nM,,
"O=C(N=S(=O)(CCCO)CCCO)c1cncc(C#Cc2cccc(NC(=O)c3cccc(C(F)(F)F)c3)c2)c1 [Example 18, N-[Bis(3-hydroxypropyl)(oxido)-λ^4-sulfanylidene]-5-[(3-{[3-(trifluoromethyl)benzoyl]amino}phenyl)ethynyl]nicotinamide]",4 nM,,,
"O=C(N=S(=O)(CCCO)CCCO)c1cncc(C#Cc2cccc(NC(=O)c3ccc(F)c(Cl)c3)c2)c1 [Example 19, N-[Bis(3-hydroxypropyl)(oxido)-λ^4-sulfanylidene]-5-({3-[(3-chloro-4-fluorobenzoyl)amino]phenyl}ethynyl)nicotinamide]",5 nM,,,
"Cc1ccc(F)c(C(=O)Nc2cccc(C#Cc3cncc(C(=O)N=S(=O)(CCCO)CCCO)c3)c2)c1 [Example 20, N-[Bis(3-hydroxypropyl)(oxido)-λ^4-sulfanylidene]-5-({3-[(2-fluoro-5-methylbenzoyl)amino]phenyl}ethynyl)nicotinamide]",9 nM,,,
"COc1cccc(C(=O)Nc2cccc(C#Cc3cc(C(=O)N=S(=O)(CCCO)CCCO)cnc3N)c2)c1 [Example 21, 6-Amino-N-[bis(3-hydroxypropyl)(oxido)-λ^4-sulfanylidene]-5-({3-[(3-methoxybenzoyl)amino]phenyl}ethynyl)nicotinamide]",5 nM,,,
"Cc1cccc(NC(=O)c2cccc(C#Cc3cc(C(=O)N=S(=O)(CCCO)CCCO)cnc3N)c2)c1 [Example 22, 6-Amino-N-[bis(3-hydroxypropyl)(oxido)-λ^4-sulfanylidene]-5-[(3-{[(3-methylphenyl)amino]carbonyl}phenyl)ethynyl]nicotinamide]",3 nM,8 nM,,
"Cc1ccoc1C(=O)Nc1cccc(C#Cc2cc(C(=O)N=S(C)(=O)CCCCC(=O)O)cnc2N)c1 (stereo not shown) [Example 24, 5-(N-{[6-amino-5-({3-[(3-methyl-2-furoyl)amino]phenyl}ethynyl)pyridin-3-yl]carbonyl}-S-methylsulfonimidoyl)pentanoic acid]",5 nM,,46 nM,
"COC(=O)CCCCS(C)(=O)=NC(=O)c1cnc(N)c(C#Cc2cccc(NC(=O)c3cc(C)ccc3F)c2)c1 (stereo not shown) [Example 25, Methyl 5-(N-{[6-amino-5-({3-[(2-fluoro-5-methylbenzoyl)amino]phenyl}ethynyl)pyridin-3-yl]carbonyl}-S-methylsulfonimidoyl)pentanoate]",8 nM,45 nM,,27 nM
"COC(=O)CCCCS(C)(=O)=NC(=O)c1cnc(N)c(C#Cc2cccc(C(=O)Nc3cc(C)ccc3F)c2)c1 (stereo not shown) [Example 35, Methyl 5-[N-({6-amino-5-[(3-{[(2-fluoro-5-methylphenyl)amino]carbonyl}phenyl)ethynyl]pyridin-3-yl}carbonyl)-S-methylsulfonimidoyl]pentanoate]",17 nM,,,43 nM
"COC(=O)CCCCS(C)(=O)=NC(=O)c1cnc(N)c(C#Cc2cccc(NC(=O)Nc3cc(C)ccc3F)c2)c1 (stereo not shown) [Example 37, Methyl 5-{N-[(6-amino-5-{[3-({[(2-fluoro-5-methylphenyl)amino]carbonyl}amino)phenyl]ethynyl}pyridin-3-yl)carbonyl]-S-methylsulfonimidoyl}pentanoate]",5 nM,14 nM,,44 nM
(R)—N-[(3-Hydroxypropyl)(methyl)oxido-λ^4-sulfanylidene]-5-({3-[(3-methyl-2-furoyl)amino]phenyl}ethynyl)nicotinamide [Example 40],3 nM,,2 nM,
